US20250161501A1, “Radiolabeled Compounds for Imaging of Fibroblast Activation Protein (FAP) and Treatment of FAP-Related Disorders” (Provincial Health Services Authority, priority 2022, published 2025)

Assays:
U87 xenografts = test: Ex vivo biodistribution of 68Ga-labeled tracer in U87 tumor-bearing mice; details: U87 tumor model, mean±SD
Description: (§1) All imaging and biodistribution studies were performed using male NOD-scidIL2Rg^null (NRG) mice and conducted according to the guidelines established by the Canadian Council on Animal Care and approved by Animal Ethics Committee of the University of British Columbia. For tumor inoculations, mice were anesthetized by inhalation with 2% isoflurane in oxygen and implanted subcutaneously with 7.5×10^6 HEK293T:hFAP or U87 cells below the left shoulder. Imaging and biodistribution studies were performed only after tumors grew to 5-8 mm in diameter.
For ex vivo biodistribution studies, mice were injected with -1-3 MBq of the ^68Ga-labeled tracer. Mice were allowed to recover and roam freely in the cages after injecting the tracer. […] The uptake in each organ/tissue was normalized to the injected dose and expressed as the percentage of the injected dose per gram of tissue (% ID/g). […]

[1] = tested on: HEK293T:hFAP tumor xenografts; test: Ex vivo biodistribution of 68Ga-labeled tracers in HEK293T:hFAP tumor-bearing mice; details: for Uptake in HEK293T:hFAP tumor xenografts, comparison in words: 68Ga-SB03178 vs 68Ga-FAPI-4, 68Ga-SB04033 vs 68Ga-SB03178
Description: as §1
For ex vivo biodistribution studies, mice were injected with -1-3 MBq of the ^68Ga-labeled tracer. Mice were allowed to recover and roam freely in the cages after injecting the tracer. […] The uptake in each organ/tissue was normalized to the injected dose and expressed as the percentage of the injected dose per gram of tissue (% ID/g).
Biodistribution data for ^68Ga-SB03178, ^68Ga-SB04033, and ^68Ga-FAPI-4 in mice bearing FAP tumor xenografts are presented in Tables 5-7. Data are presented as mean±SD % ID/g.

[2] = HEK293T:hFAP tumor model, 1 h post-injection (n = 4), mean±SD
[3] = HEK293T:hFAP tumor model, 3 h post-injection (n = 2), mean±SD
[4] = HEK293T:hFAP tumor xenograft mice, 1 h post-injection, Table 5, mean±SD

## N#C[C@@H]1CC(F)(F)CN1C(=O)CNC(=O)c1ccnc2c1cc(OCCCN1CCN(C(=O)CN3CCN(CC(=O)O)CCN(CC(=O)O)CCN(CC(=O)O)CC3)CC1)c1ccccc12 [^68Ga-SB03178, metal not drawn]
U87 xenografts; 1 h post-injection (n = 3)
  Biodistribution: Adrenal Glands: 1.41 ± 0.38 % ID/g
  Biodistribution: Blood: 3.55 ± 0.22 % ID/g
  Biodistribution: Bone: 2.51 ± 0.66 % ID/g
  Biodistribution: Brain: 0.07 ± 0.01 % ID/g
  Biodistribution: Fat: 0.28 ± 0.18 % ID/g
  Biodistribution: Heart: 0.80 ± 0.06 % ID/g
  Biodistribution: Kidneys: 8.92 ± 1.32 % ID/g
  Biodistribution: Large Intestines: 0.44 ± 0.09 % ID/g
  Biodistribution: Liver: 1.12 ± 0.08 % ID/g
  Biodistribution: Lungs: 1.66 ± 0.10 % ID/g
  Biodistribution: Muscle: 0.57 ± 0.21 % ID/g
  Biodistribution: Pancreas: 0.65 ± 0.11 % ID/g
  Biodistribution: Small Intestine: 1.07 ± 0.03 % ID/g
  Biodistribution: Spleen: 0.48 ± 0.08 % ID/g
  Biodistribution: Stomach: 0.28 ± 0.12 % ID/g
  Biodistribution: Testes: 0.65 ± 0.09 % ID/g
  Biodistribution: Tumor: 16.3 ± 1.72 % ID/g
U87 xenografts; 3 h post-injection (n = 3)
  Biodistribution: Adrenal Glands: 0.49 ± 0.30 % ID/g
  Biodistribution: Blood: 0.98 ± 0.09 % ID/g
  Biodistribution: Bone: 1.11 ± 0.27 % ID/g
  Biodistribution: Brain: 0.03 ± 0.00 % ID/g
  Biodistribution: Fat: 0.09 ± 0.04 % ID/g
  Biodistribution: Heart: 0.28 ± 0.01 % ID/g
  Biodistribution: Kidneys: 9.63 ± 1.23 % ID/g
  Biodistribution: Large Intestines: 1.15 ± 0.37 % ID/g
  Biodistribution: Liver: 0.71 ± 0.05 % ID/g
  Biodistribution: Lungs: 0.72 ± 0.11 % ID/g
  Biodistribution: Muscle: 0.34 ± 0.07 % ID/g
  Biodistribution: Pancreas: 0.27 ± 0.06 % ID/g
  Biodistribution: Small Intestine: 0.56 ± 0.16 % ID/g
  Biodistribution: Spleen: 0.34 ± 0.04 % ID/g
  Biodistribution: Stomach: 0.24 ± 0.02 % ID/g
  Biodistribution: Testes: 0.25 ± 0.03 % ID/g
  Biodistribution: Tumor: 7.95 ± 0.29 % ID/g
[1]
  Uptake in HEK293T:hFAP tumor xenografts, comparison in words: higher uptake
[1]; [2]
  Biodistribution: Adrenal Glands: 3.01 ± 2.86 % ID/g
  Biodistribution: Blood: 2.59 ± 0.32 % ID/g
  Biodistribution: Bone: 1.89 ± 0.31 % ID/g
  Biodistribution: Brain: 0.06 ± 0.01 % ID/g
  Biodistribution: Fat: 0.22 ± 0.03 % ID/g
  Biodistribution: Heart: 0.71 ± 0.09 % ID/g
  Biodistribution: Kidneys: 9.58 ± 1.21 % ID/g
  Biodistribution: Large Intestines: 0.52 ± 0.21 % ID/g
  Biodistribution: Liver: 1.11 ± 0.15 % ID/g
  Biodistribution: Lungs: 1.66 ± 0.23 % ID/g
  Biodistribution: Muscle: 0.56 ± 0.08 % ID/g
  Biodistribution: Pancreas: 0.57 ± 0.05 % ID/g
  Biodistribution: Small Intestine: 1.04 ± 0.14 % ID/g
  Biodistribution: Spleen: 0.87 ± 0.30 % ID/g
  Biodistribution: Stomach: 0.27 ± 0.19 % ID/g
  Biodistribution: Testes: 0.44 ± 0.08 % ID/g
  Biodistribution: Tumor: 21.0 ± 3.84 % ID/g
[1]; [3]
  Biodistribution: Adrenal Glands: 0.31 ± 0.06 % ID/g
  Biodistribution: Blood: 1.35 ± 1.18 % ID/g
  Biodistribution: Bone: 0.38 ± 0.07 % ID/g
  Biodistribution: Brain: 0.02 ± 0.00 % ID/g
  Biodistribution: Fat: 0.11 ± 0.10 % ID/g
  Biodistribution: Heart: 0.15 ± 0.06 % ID/g
  Biodistribution: Kidneys: 3.89 ± 1.35 % ID/g
  Biodistribution: Large Intestines: 0.53 ± 0.13 % ID/g
  Biodistribution: Liver: 0.33 ± 0.13 % ID/g
  Biodistribution: Lungs: 0.39 ± 0.08 % ID/g
  Biodistribution: Muscle: 0.13 ± 0.08 % ID/g
  Biodistribution: Pancreas: 0.17 ± 0.05 % ID/g
  Biodistribution: Small Intestine: 0.34 ± 0.21 % ID/g
  Biodistribution: Spleen: 0.24 ± 0.07 % ID/g
  Biodistribution: Stomach: 0.06 ± 0.02 % ID/g
  Biodistribution: Testes: 0.12 ± 0.03 % ID/g
  Biodistribution: Tumor: 6.58 ± 1.98 % ID/g
[1]; [4]
  Biodistribution: Adrenal Glands: 3.48 ± 3.31 % ID/g
  Biodistribution: Blood: 3.00 ± 0.38 % ID/g
  Biodistribution: Bone: 2.18 ± 0.35 % ID/g
  Biodistribution: Brain: 0.07 ± 0.01 % ID/g
  Biodistribution: Fat: 0.25 ± 0.04 % ID/g
  Biodistribution: Heart: 0.82 ± 0.10 % ID/g
  Biodistribution: Kidneys: 11.1 ± 1.40 % ID/g
  Biodistribution: Liver: 1.29 ± 0.17 % ID/g
  Biodistribution: Lungs: 1.92 ± 0.26 % ID/g
  Biodistribution: Muscle: 0.65 ± 0.09 % ID/g
  Biodistribution: Pancreas: 0.66 ± 0.06 % ID/g
  Biodistribution: Spleen: 1.00 ± 0.35 % ID/g
  Biodistribution: Stomach: 0.32 ± 0.22 % ID/g
  Biodistribution: Testes: 0.51 ± 0.09 % ID/g
  Biodistribution: Tumor: 24.3±4.44 % ID/g

## C[C@@H](NC(=O)c1ccnc2c1cc(OCCCN1CCN(C(=O)CN3CCN(CC(=O)O)CCN(CC(=O)O)CCN(CC(=O)O)CC3)CC1)c1ccccc12)C(=O)N1CCC[C@H]1B(O)O [^68Ga-SB04033, metal not drawn]
[1]
  Uptake in HEK293T:hFAP tumor xenografts, comparison in words: weaker uptake
[1]; [2]
  Biodistribution: Adrenal Glands: 0.65 ± 0.46 % ID/g
  Biodistribution: Blood: 3.62 ± 0.47 % ID/g
  Biodistribution: Bone: 1.52 ± 0.22 % ID/g
  Biodistribution: Brain: 0.08 ± 0.01 % ID/g
  Biodistribution: Fat: 0.30 ± 0.15 % ID/g
  Biodistribution: Heart: 0.95 ± 0.12 % ID/g
  Biodistribution: Kidneys: 10.3 ± 0.55 % ID/g
  Biodistribution: Large Intestines: 0.33 ± 0.03 % ID/g
  Biodistribution: Liver: 1.06 ± 0.11 % ID/g
  Biodistribution: Lungs: 2.13 ± 0.33 % ID/g
  Biodistribution: Muscle: 0.54 ± 0.11 % ID/g
  Biodistribution: Pancreas: 0.62 ± 0.05 % ID/g
  Biodistribution: Small Intestine: 1.53 ± 0.20 % ID/g
  Biodistribution: Spleen: 0.98 ± 0.27 % ID/g
  Biodistribution: Stomach: 0.30 ± 0.10 % ID/g
  Biodistribution: Testes: 0.59 ± 0.07 % ID/g
  Biodistribution: Tumor: 5.95 ± 0.16 % ID/g
